The values below come from article doi:10.1101/2025.03.24.644576v1 (biorxiv, 2025).

The target in test [1] is T1, AmRDL receptor (Apis mellifera, UniProt A0A8U0Y4W2).
T1 sequence (A0A8U0Y4W2 19-476): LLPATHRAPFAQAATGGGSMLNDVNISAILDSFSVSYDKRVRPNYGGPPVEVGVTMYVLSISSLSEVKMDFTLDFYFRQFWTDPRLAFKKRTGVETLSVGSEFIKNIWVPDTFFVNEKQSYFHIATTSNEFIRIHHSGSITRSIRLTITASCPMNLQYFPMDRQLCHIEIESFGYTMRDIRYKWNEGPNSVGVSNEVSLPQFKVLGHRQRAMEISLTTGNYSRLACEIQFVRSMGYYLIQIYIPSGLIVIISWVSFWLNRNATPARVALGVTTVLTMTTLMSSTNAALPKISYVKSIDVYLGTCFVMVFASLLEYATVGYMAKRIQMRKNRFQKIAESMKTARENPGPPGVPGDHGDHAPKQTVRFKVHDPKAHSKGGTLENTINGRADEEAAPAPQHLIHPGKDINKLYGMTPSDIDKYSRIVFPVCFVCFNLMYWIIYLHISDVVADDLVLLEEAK
In words: two-electrode voltage clamp, Xenopus oocytes. It counts as cell-based. (In general: Two-electrode voltage clamp is typically applied to oocytes expressing channels or transporters.)

The target of test [2] is T2, AmRDL receptor (Apis mellifera, UniProt A0A8U0Y4W2, F191A).
T2 sequence (A0A8U0Y4W2 19-476 F191A): T1 sequence (A0A8U0Y4W2 19-476)
The experiment in a line: two-electrode voltage clamp, Xenopus oocytes. Format: cell-based.

As to `NCCCC(=O)O` [GABA], the EC50 (as a rule, the concentration at which the effect is half-maximal) was determined as 10 µM at AmRDL receptor [1] and 1000 µM on AmRDL receptor [2].
